Experimental data reported in ChEMBL document CHEMBL1157539, “Thousands of chemical starting points for antimalarial lead identification” (Nature, 2010).

Tested on: Plasmodium falciparum
Assay: GSK_TCMDC: Inhibition of Plasmodium falciparum 3D7 in whole erythrocytes, using parasite LDH activity as an index of growth.
Type: functional, organism-based
Settings: Plasmodium falciparum, 3D7

Row | SMILES | XC50 [nM]
1 | CN1CCN(Cc2cc3cc(NC(=O)/C=C/c4ccc(Cl)cc4)ccc3s2)CC1 | 767
2 | CC(C)C[C@H](Nc1ccnc(NCC2CCCCC2)n1)C(=O)Nc1ccccc1 | 1430
3 | COc1cc2c(cc1N1CC(C)NC(C)C1)N(C(=O)c1ccc(-c3ccc(-c4ncc[nH]4)cc3C)cc1)CC2 (centres undefined) | 717
4 | Cc1cccc2nc(-c3cccc(-c4cccc(CNCc5cnn(-c6ccccc6)n5)c4)c3)[nH]c12 | 663
5 | CCCCCNC(=N)N/N=C/c1c[nH]c2ccc(OC)cc12 | 955
6 | Cc1cc2nc(-c3ccc(/C=C/C(=O)NCCCc4ccccc4)cc3)[nH]c2cc1C | 955
7 | Cc1ccc(NC(=O)c2cnc(N3CCN(c4ccncc4)CC3)c(Cl)c2)cc1 | 965
8 | O=S(=O)(ON=C1CCc2ccccc21)c1ccc(Cl)cc1 | 1310
9 | CN1CCN(c2ccc3nccc(CCN4CCC(NCc5ccc6c(n5)NC(=O)CO6)CC4)c3n2)CC1 | 824
10 | O=C(NCCc1ccccc1)N(Cc1ccccc1-c1ccc(CNC2CCCC2)cc1)C1CCN(Cc2ccccc2)CC1 | 1130
11 | CCCc1cc(OC)c(C[C@H]2c3cc(O)c(Cl)cc3CCN2C)cc1OC | 576
12 | CN(C)CCCc1cc(NC(=O)Nc2cccc(Cl)c2Cl)ccc1I | 539
13 | Cc1cccc2nc(-c3cccc(-c4cccc(NC(=O)c5cnccc5C(F)(F)F)c4)c3)[nH]c12 | 659
14 | CN(C)CCOC(=O)C1(O)CCC2CC1C2(C)C (centres undefined) | 984
15 | COC(=O)c1ccc(CC(C)NCC(O)c2ccc(C(O)CNC(C)Cc3ccc(C(=O)OC)cc3)cc2)cc1 (centres undefined) | 1030
16 | COc1ccc2[nH]ccc(=NN=Cc3ccccc3Cl)c2c1 | 664
17 | CS(=O)(=O)n1c(CN2CCN(c3ncc(C(F)(F)F)cc3Cl)CC2)nc2ccccc21 | 1060
18 | CNC(=O)c1cnc(Nc2ccc(N3CCN(C)CC3)cc2)nc1Nc1cccc(OC)c1 | 752
19 | O=C(Nc1cccc(-c2ccc(-c3nc4cc(F)ccc4[nH]3)s2)c1)c1ccncc1 | 703
20 | O=S(=O)(c1ccccc1C(F)(F)F)C1CC2CCC(C1)N2S(=O)(=O)c1ccc(Cl)c(C(F)(F)F)c1 (centres undefined) | 706
21 | CCN1CCN(c2cc(C)c3cc(NC(=O)c4ccc(OC)c(OC)c4)ccc3n2)CC1 | 1030
22 | CCCNCc1ccc(-c2ccc(CN(Cc3cccs3)C(=O)C3CCN(C)CC3)cc2)nc1 | 665
23 | O=C(Cn1cnc2c(nnn2Cc2ccccc2F)c1=O)Nc1ccc2c(c1)OCCO2 | 949
24 | COc1cc(C(C)C)nc2ccc(NC(=O)c3ccc(C(=O)Nc4ccc5nc(C(C)C)cc(OC)c5c4)cc3)cc12 | 579
25 | Cc1ccc(CCC(C)NCC(O)c2cccc(Cl)c2)cc1 (centres undefined) | 804

Row | SMILES | XC50 [nM]
26 | Cc1cc(N[C@@H](Cc2ccccc2)C(=O)NCCc2ccccc2)nc(NCc2ccccc2C)n1 | 879
27 | CCc1cn2c3c(cc(C(=O)N[C@@H](Cc4ccccc4)[C@H](O)CNC(C)C)cc13)N(C)S(=O)(=O)C2 | 317
28 | Cc1cccc2nc(-c3ccc(-c4cccc(CN5CCCC5CN)c4)cc3)[nH]c12 (centres undefined) | 914
29 | CN1CCN(c2cccc(Nc3nccc(NCC(O)c4ccccc4)n3)c2)CC1 (centres undefined) | 718
30 | CC1CCCCC1N(C)C1CCN(CCCNC(=O)C=Cc2ccc(Cl)cc2Cl)CC1 (centres undefined) | 650
31 | COc1ccc2[nH]c(C)cc(=NN=Cc3ccc(F)cc3)c2c1 | 191
32 | Cc1cc(Nc2ccc(C)c(C)c2)n2nc(C)nc2n1 | 599
33 | CC1(C)CN(CCC2CCC(NC(=O)/C=C/c3ccccc3F)CC2)Cc2ccc(C#N)cc21 (centres undefined) | 1110
34 | Cc1ccc(-c2nc3cc(C(=O)NC4CCN(Cc5ccccc5)CC4)ccc3[nH]2)cc1 | 744
35 | COc1ccc2ncc(Cl)c(CCN3C[C@H](CNCc4ccc5c(n4)NC(=O)CS5)[C@H](O)C3)c2n1 | 1000
36 | COc1ccc(S(=O)(=O)NC2CCN(c3ccnc4cc(Cl)ccc34)C2)cc1 (centres undefined) | 493
37 | Fc1ccc(-c2cncc(Nc3ccncc3)n2)cc1 | 1320
38 | Cc1cc(OCC(=O)Nc2ccc(-c3nc4ccccc4[nH]3)cc2)cc(C)c1Cl | 742
39 | Cc1cccc(Cn2ccc3c4c(N)nc(N)nc4ccc32)c1 | 7.35
40 | O=C(Nc1ccc(F)cc1)c1cnc(N2CCN(c3ccncc3)CC2)c(Cl)c1 | 735
41 | CN1CCC(NC(=O)c2cccc(Nc3cc(Nc4cccc(Br)c4)ncn3)c2)CC1 | 1010
42 | O=C(/C=C/c1ccc(Cl)c(Cl)c1)NCCCCCN1CCCC(C(=O)Nc2ccc(Cl)cc2)C1 (centres undefined) | 851
43 | CCOc1cc2c(cc1OCC)C(c1ccc(O)c(Cl)c1)NCC2 (centres undefined) | 790
44 | CCC(C)NS(=O)(=O)c1ccc2nc(Nc3ccc(C)c(Cl)c3)n(C(C)C(C)C)c2c1 (centres undefined) | 375
45 | CSc1ccc2nccc(Nc3ccc(Oc4ccccc4)cc3)c2c1 | 871
46 | Cc1cc([N+](=O)[O-])ccc1NC(=O)Nc1cccc(C(F)(F)F)c1 | 721
47 | COc1cc(Cc2cnc(N)nc2N)cc(OC(C)C)c1OC | 1040
48 | CCc1c(CCNCCCCCCNCCc2ccc(Br)cc2)ccc(O)c1O | 903
49 | COc1ccc(S(=O)(=O)NC2CCN(c3ccc(C(F)(F)F)cc3NC(=O)OCC(C)C)CC2)cc1 | 1220
50 | FC(F)(F)c1cc(C(F)(F)F)c2cc(CNCCCNc3nc4ccccc4[nH]3)[nH]c2c1 | 141

Row | SMILES | XC50 [nM]
51 | N#Cc1cccc(Nc2cc(C(F)(F)F)nc(Nc3ccccc3)n2)c1 | 1440
52 | COc1cc(NC(=O)c2cc3c(C)nn(-c4cccc(C(F)(F)F)c4)c3s2)cc(OC)c1OC | 801
53 | C=CCc1cc(C)ccc1OCCCON1C(N)=NC(N)=NC1(C)C | 3.2
54 | COc1ccc2nc3cc(Cl)ccc3c(NCCCN3CCNCC3)c2c1 | 232
55 | CC(=O)Nc1ccc(C(=O)Nc2ccc(-c3cccc(-c4nc5cc(C(F)(F)F)ccc5[nH]4)c3)cc2)cn1 | 111
56 | COc1ccc(CNCc2ccccc2)cc1-c1ccc(S(=O)(=O)NCCN2CCCC2)c(C)c1 | 856
57 | CCc1cn2c3c(cc(C(=O)N[C@@H](Cc4cccc(Cl)c4)[C@H](O)CNC4CC4)cc13)N(C)S(=O)(=O)CC2 | 145
58 | COc1ccc(NC(=O)CCNc2cc(C)nc(Nc3ccccc3)n2)cc1 | 1100
59 | CN(C)CCN(C)Cc1ccc(-c2cccc(NC(=O)c3ccc(Cl)cc3)c2)cc1 | 558
60 | N=C(N)Nc1nc(-c2cccc(NC(=O)NCC(c3ccccc3)c3ccccc3)c2)cs1 | 791
61 | CN(C)Cc1cccc2nc(-c3csc(Cc4cc(Cl)ccc4OCc4ccccc4)n3)[nH]c12 | 1120
62 | Cc1ccc(-n2c(Sc3ncnc4sccc34)nnc2N2CCCC2)cc1 | 263
63 | O=C(NCCCCN1CCC(c2ccc3c(c2OCc2ccccn2)CCCC3)CC1)c1ccc(NC(=O)c2ccc(Cl)cc2)cc1 | 803
64 | C=CCn1c(Sc2ccc(C#N)c([N+](=O)[O-])c2)nnc1-c1cc(OC)cc(OC)c1 | 436
65 | CN(C)CCNCc1ncsc1-c1ccc2c(Nc3ccc(F)cc3Cl)ccnc2c1 | 1470
66 | CC(C)NCc1ccc(-c2ccc(-c3nc4cc(C(F)(F)F)ccc4[nH]3)s2)cc1 | 181
67 | O=C(Nc1cccc(OCc2ccccc2)c1)c1ccc(CN2CCC(Cc3ccccc3)CC2)cc1 | 850
68 | CCCCCCCCc1c(C)[nH]c(C)c(Cl)c1=O | 229
69 | O=C(Nc1ccc2c(c1)CCN2C1CCN(Cc2ccc(C(F)(F)F)cc2F)C1)c1ccco1 (centres undefined) | 510
70 | FC(F)(F)c1cccc(C=NNc2nc3ccccc3[nH]2)c1 | 148
71 | CC(C)(C(=O)Nc1ccc(N2CCC3(CCCN(CC4CC4)C3)CC2)c(Cl)c1)c1cccc(C(F)(F)F)c1 | 2000
72 | CC(C)(C)c1ccc(CN2CCC(CNC(=O)c3cc(-c4cccc(F)c4)cs3)C2)cc1 (centres undefined) | 898
73 | COc1ccc(-c2cc(C(=O)N[C@@H](CC3CCCCC3)C(=O)NCCN3CCCC3)ccc2O)cc1 | 868
74 | COc1cccc(Nc2nc(NCCO)c3ccccc3n2)c1 | 151
75 | COc1ccc(-c2ccc(NC(=O)c3cccc(C#N)c3)cc2)cc1CN1CCCC(C(N)=O)C1 (centres undefined) | 863

Row | SMILES | XC50 [nM]
76 | CS(=O)(=O)c1ccc(-c2cc(C(F)(F)F)nc(N[C@@H]3CCCC[C@H]3OCc3ccccc3)n2)cc1 | 60.4
77 | O=C(Nc1cc(C(F)(F)F)cc(C(F)(F)F)c1)c1cccc([N+](=O)[O-])c1 | 895
78 | CC(C)NCc1ccc(-c2cccc(NC(=O)c3cccc(C#N)c3)c2)cc1 | 406
79 | CCC(CC)(Cc1ccccc1)NC(=O)[C@H](CC1CCCCC1)Nc1ccc(C#N)c2ccccc12 | 634
80 | COc1cc2nc(N[C@@H](CO)c3ccccc3)nc(NCc3ccccc3)c2cc1OC | 657
81 | COc1cc2nc(N3CCC(CNC(=O)c4ccc(-c5ccc(-c6noc(C)n6)cc5)cc4)CC3)nc(N)c2cc1OC | 139
82 | CCCNC(=O)c1cncc(-c2ccc(CNC(CC)c3ccccc3)cc2)c1 (centres undefined) | 876
83 | CCCNC(=O)Nc1ccc(N(C)c2ccnc(NC3CC3)n2)cc1 | 618
84 | Cc1cc(N2CCCC2)nc(Nc2ccc(NC(=O)c3ccc4c(c3)OCO4)cc2)n1 | 815
85 | Cc1ccc(NC(=O)c2cccc(CN3CCCN(Cc4cccc(O)c4)CC3)c2)cc1C | 1040
86 | C[C@@H](N)C#Cc1cc2c(Nc3ccc(OCc4cccc(F)c4)c(Cl)c3)ncnc2s1 | 1060
87 | CC(C)CN1C(=O)c2ccc(C(=O)Nc3nccs3)cc2C1=O | 971
88 | c1cc(CN2CCc3ccccc3CC2)cc(-c2c[nH]c3nc(NC4CCCC4)ncc23)c1 | 800
89 | O=C(Nc1cccc(C(F)(F)F)c1)c1cccc(S(=O)(=O)NCC2CCCN(Cc3ccccc3)C2)c1 (centres undefined) | 1100
90 | O=C(NCC1CCCCC1)c1cc(=O)c2ccccc2o1 | 320
91 | Cc1cc(C)c2c(c1)C(=NO)CCN2 | 945
92 | CC(C)c1sc(N2CCCCC2)nc1C(=O)Nc1ccc(F)cc1C(F)(F)F | 239
93 | COc1ccc(-c2cccc(NC(=O)c3cccc(Cl)c3)c2)cc1CN1CCNCC1 | 803
94 | COc1cc2c(cc1OC)CN(CCc1ccc(NC(=O)c3cc4cc(OC(F)(F)F)ccc4[nH]3)cc1)CC2 | 535
95 | Fc1ccc(C=NN=c2cc[nH]c3ccc(C(F)(F)F)cc23)cc1 | 1100
96 | O=C(/C=C/c1ccc(Cl)c(Cl)c1)NCCCCCN1CCC(c2c[nH]c3ccc(O)cc23)CC1 | 886
97 | CC(=O)Nc1ccc2[nH]cc(C3CCN(CCC4CCN(C(=O)/C=C/c5ccc(Cl)c(Cl)c5)CC4)CC3)c2c1 | 776
98 | O=C(N[C@H]1CCN(CCc2ccc(O[C@H]3CCNC3)c(Br)c2)C1)c1ccc(Cl)c(Cl)c1 | 658
99 | CN1CCN(CCCN(Cc2cccc(-c3ccc(CNCCc4ccccc4)cc3)c2)C(=O)c2cccs2)CC1 | 716
